# US20250154115A1, “ARYLBENZOISOXAZOLE COMPOUNDS AS IP6K AND IPMK INHIBITORS AND METHODS OF USE THEREOF” (THE UNIVERSITY OF NORTH CAROLINA AT CHAPEL HILL, priority 2022, published 2025)
# Experiments:
# Format in all cases: biochemical
# IP6K1 = IP6K1 (Homo sapiens (Human), UniProt Q92551); test: Enzyme-coupled assay of IP6K1 activity (Dipp1-coupled, malachite green Pi release)
# Protocol: (§1) […] The cells were disrupted using a constant cell disruption system (Constant Systems) under 20 kPsi.
# (§2) Pi release was determined with a malachite green colorimetric assay.^45 Where indicated, TNP (Cayman Chemical) was added to the assays (FIG. 2A-E).
# IP6K2 = IP6K2 (Homo sapiens (Human), UniProt Q9UHH9); test: Enzyme-coupled assay of IP6K2 activity (Dipp1-coupled, malachite green Pi release)
# IP6K2, sequence (Q9UHH9 whole entry): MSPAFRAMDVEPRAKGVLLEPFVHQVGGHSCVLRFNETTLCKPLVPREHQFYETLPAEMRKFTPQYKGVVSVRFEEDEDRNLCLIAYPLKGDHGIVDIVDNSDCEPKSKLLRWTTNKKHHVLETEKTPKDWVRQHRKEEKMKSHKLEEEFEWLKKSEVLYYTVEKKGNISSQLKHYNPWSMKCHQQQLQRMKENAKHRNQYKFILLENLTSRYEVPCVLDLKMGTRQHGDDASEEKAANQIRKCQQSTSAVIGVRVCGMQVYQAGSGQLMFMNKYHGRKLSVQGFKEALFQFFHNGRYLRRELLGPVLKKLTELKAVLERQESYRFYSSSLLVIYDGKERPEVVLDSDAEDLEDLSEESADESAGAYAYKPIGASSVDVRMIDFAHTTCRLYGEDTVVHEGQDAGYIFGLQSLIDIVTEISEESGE
# Protocol: as §1, §2
# IPMK = IPMK (Homo sapiens (Human), UniProt Q8NFU5); test: Enzyme-coupled assay, IPMK IC50
# IPMK, sequence (Q8NFU5 whole entry, species assumed): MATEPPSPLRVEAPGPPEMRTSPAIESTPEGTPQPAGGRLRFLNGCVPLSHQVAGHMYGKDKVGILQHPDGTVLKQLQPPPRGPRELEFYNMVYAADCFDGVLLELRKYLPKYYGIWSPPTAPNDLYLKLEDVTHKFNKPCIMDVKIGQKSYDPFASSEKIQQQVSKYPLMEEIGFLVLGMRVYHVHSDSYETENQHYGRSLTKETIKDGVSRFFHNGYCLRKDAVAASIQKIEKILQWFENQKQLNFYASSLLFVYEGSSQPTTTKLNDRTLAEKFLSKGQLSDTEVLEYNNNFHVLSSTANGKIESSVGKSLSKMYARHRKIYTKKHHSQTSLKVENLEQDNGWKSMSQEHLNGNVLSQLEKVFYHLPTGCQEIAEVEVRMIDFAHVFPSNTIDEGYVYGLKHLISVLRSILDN
# [1] = determined from enzyme-coupled assays
# IP6K1, sequence (Q92551 whole entry): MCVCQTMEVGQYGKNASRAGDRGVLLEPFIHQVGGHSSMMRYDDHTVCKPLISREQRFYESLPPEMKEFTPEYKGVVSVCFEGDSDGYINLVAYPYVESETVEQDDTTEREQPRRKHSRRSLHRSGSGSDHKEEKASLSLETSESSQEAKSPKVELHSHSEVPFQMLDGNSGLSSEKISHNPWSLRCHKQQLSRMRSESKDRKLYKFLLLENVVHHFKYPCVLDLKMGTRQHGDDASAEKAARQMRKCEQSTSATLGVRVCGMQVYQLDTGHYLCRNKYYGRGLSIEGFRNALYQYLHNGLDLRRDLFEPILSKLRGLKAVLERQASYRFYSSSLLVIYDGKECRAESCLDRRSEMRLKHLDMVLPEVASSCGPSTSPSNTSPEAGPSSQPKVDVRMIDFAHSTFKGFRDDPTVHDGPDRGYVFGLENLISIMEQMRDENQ
compound,measurement,setting,value
CC(C)(C)OC(=O)N1CCCC1C(=O)N1CCC(c2cccc(-c3onc4ccc(-c5nnn[nH]5)cc34)c2)CC1 (stereo not shown) [Compound 116],IC50,"IP6K1; enzyme-coupled assay, Table 4",0.1 to 1 µM
O=C(O)c1ccc2noc(-c3ccc(C(=O)NCCN4CCOCC4)cc3)c2c1 [Compound 41],IP6K1 IC50,"IP6K1; enzyme-coupled assay, Table 2",−
same,IP6K2 IC50,"IP6K2; enzyme-coupled assay, Table 2",−
same,IPMK IC50,"IPMK; enzyme-coupled assay, Table 2",−
c1cc(-c2onc3ccc(-c4nnn[nH]4)cc23)cc(C2CCNCC2)c1 [Compound 104],IC50,"IP6K1; enzyme-coupled assay, Table 4",0.1 to 1 µM
c1cc2noc(-c3ccc(C4CCNCC4)cc3)c2cc1-c1nnn[nH]1 [Compound 117],IC50,"IP6K1; enzyme-coupled assay, Table 4",0.1 to 1 µM
O=C(Nc1ccc(-c2onc3ccc(-c4noc(=O)[nH]4)cc23)cc1)C1CCCC1 [Cmpd 130],IC50,IP6K1; [1],< 0.01 µM
same,IC50,IP6K2; [1],< 0.01 µM
same,IC50,IPMK; [1],0.01 to 0.1 µM
Clc1ccc(-c2cccc(-c3onc4ccc(-c5nnn[nH]5)cc34)c2)c(Cl)c1 [Compound 84],IC50,"IP6K1; enzyme-coupled assay, Table 4",0.01 to 0.1 µM
same,IC50,"IP6K2; enzyme-coupled assay, Table 4",0.01 to 0.1 µM
same,IC50,"IPMK; enzyme-coupled assay, Table 4",0.01 to 0.1 µM
CC(C)(C)OC(=O)N1CC(C(=O)N2CCC(c3cccc(-c4onc5ccc(-c6nnn[nH]6)cc45)c3)CC2)C1 [Compound 115],IC50,"IP6K1; enzyme-coupled assay, Table 4",0.1 to 1 µM
O=C(N1CCC(c2cccc(-c3onc4ccc(-c5nnn[nH]5)cc34)c2)CC1)C1(F)CC1 [Compound 112],IC50,"IP6K1; enzyme-coupled assay, Table 4",0.01 to 0.1 µM
O=C(O)c1ccc2noc(-c3ccc(-c4cccnc4)cc3)c2c1 [Compound 57],IC50,"IPMK; enzyme-coupled assay, Table 3",0.01 to 0.1 µM
c1cc(-c2onc3ccc(-c4nnn[nH]4)cc23)cc(C2CCN(C3CC4(CCC4)C3)CC2)c1 [Compound 113],IC50,"IP6K1; enzyme-coupled assay, Table 4",0.1 to 1 µM
"CC(=O)N1CCC(Oc2cccc(-c3onc4ccc(-c5nnn[nH]5)cc34)c2)CC1 [Compound 85, 1-(4-(3-(5-(1H-tetrazol-5-yl)benzo[c]isoxazol-3-yl)phenoxy)piperidin-1-yl)ethan-1-one]",IC50,"IP6K1; enzyme-coupled assay, Table 4",< 0.01 µM
same,IC50,"IP6K2; enzyme-coupled assay, Table 4",0.01 to 0.1 µM
same,IC50,"IPMK; enzyme-coupled assay, Table 4",0.01 to 0.1 µM
O=c1[nH]c(-c2ccc3noc(-c4cccc(OC5CCN(C6CCC6)CC5)c4)c3c2)no1 [Cmpd 133],IC50,IP6K1; [1],0.1 to 1 µM
same,IC50,IP6K2; [1],0.1 to 1 µM
same,IC50,IPMK; [1],0.01 to 0.1 µM
O=C(O)c1ccc2noc(-c3ccc(NC(=O)C4CCNCC4)cc3)c2c1 [Compound 48],IC50,"IP6K1; enzyme-coupled assay, Table 2",1 to 100 µM
same,IC50,"IP6K2; enzyme-coupled assay, Table 2",1 to 100 µM
same,IPMK IC50,"IPMK; enzyme-coupled assay, Table 2",−
O=c1[nH]c(-c2ccc3noc(-c4cccc(Oc5ncc(Cl)cc5Cl)c4)c3c2)no1 [Cmpd 127],IC50,IP6K1; [1],0.01 to 0.1 µM
same,IC50,IP6K2; [1],0.01 to 0.1 µM
same,IC50,IPMK; [1],0.01 to 0.1 µM
O=C(O)c1ccc2noc(-c3ccc(OC(F)(F)F)cc3)c2c1 [Compound 23],IC50,"IP6K1; enzyme-coupled assay, Table 2",1 to 100 µM
same,IC50,"IP6K2; enzyme-coupled assay, Table 2",0.1 to 1 µM
O=C(C1CC1)N1CCC(Oc2cccc(-c3onc4ccc(-c5noc(=O)[nH]5)cc34)c2)CC1 [Cmpd 138],IC50,IP6K1; [1],0.1 to 1 µM
same,IC50,IP6K2; [1],0.01 to 0.1 µM
same,IC50,IPMK; [1],0.01 to 0.1 µM
O=C(Nc1ccc(-c2onc3ccc(-c4nnn[nH]4)cc23)cc1)C1CCCCC1 [Compound 98],IC50,"IP6K1; enzyme-coupled assay, Table 4",0.1 to 1 µM
c1cc(-c2onc3ccc(-c4nnn[nH]4)cc23)cc(C2CCN(C3CCCC3)CC2)c1 [Compound 114],IC50,"IP6K1; enzyme-coupled assay, Table 4",0.1 to 1 µM
CC1(C(=O)N2CCC(c3ccc(-c4onc5ccc(-c6nnn[nH]6)cc45)cc3)CC2)COC1 [Compound 121],IC50,"IP6K1; enzyme-coupled assay, Table 4",0.1 to 1 µM
O=C(O)c1ccc2noc(-c3cccc(NC(=O)C4CCCC4)c3)c2c1 [Compound 49],IC50,"IP6K1; enzyme-coupled assay, Table 2",0.1 to 1 µM
same,IC50,"IP6K2; enzyme-coupled assay, Table 2",0.1 to 1 µM
same,IC50,"IPMK; enzyme-coupled assay, Table 2",0.01 to 0.1 µM
CN1CCC(Oc2cccc(-c3onc4ccc(-c5noc(=O)[nH]5)cc34)c2)CC1 [Cmpd 131],IC50,IP6K1; [1],0.1 to 1 µM
same,IC50,IP6K2; [1],0.1 to 1 µM
same,IC50,IPMK; [1],0.1 to 1 µM
"c1cc(OC2CCN(CC3CC3)CC2)cc(-c2onc3ccc(-c4nnn[nH]4)cc23)c1 [Compound 88, 3-(3-((1-(cyclopropylmethyl)piperidin-4-yl)oxy)phenyl)-5-(1H-tetrazol-5-yl)benzo[c]isoxazole]",IC50,"IP6K1; enzyme-coupled assay, Table 4",0.01 to 0.1 µM
same,IC50,"IP6K2; enzyme-coupled assay, Table 4",0.1 to 1 µM
same,IC50,"IPMK; enzyme-coupled assay, Table 4",0.01 to 0.1 µM
O=C(O)c1ccc2noc(-c3cccc(-c4cccc(Cl)c4)c3)c2c1 [Compound 51],IC50,"IP6K1; enzyme-coupled assay, Table 2",0.1 to 1 µM
same,IC50,"IP6K2; enzyme-coupled assay, Table 2",0.1 to 1 µM
same,IC50,"IPMK; enzyme-coupled assay, Table 2",0.01 to 0.1 µM
CC1(COc2cccc(-c3onc4ccc(-c5nnn[nH]5)cc34)c2)COC1 [Cmpd 91],IC50,"IP6K1; enzyme-coupled assay, Table 4",0.01 to 0.1 µM
same,IC50,"IP6K2; enzyme-coupled assay, Table 4",0.01 to 0.1 µM
c1cc(-c2onc3ccc(-c4nnn[nH]4)cc23)cc(C2CCN(CC3CC3)CC2)c1 [Compound 107],IC50,"IP6K1; enzyme-coupled assay, Table 4",0.01 to 0.1 µM
CN1CCC(Oc2cccc(-c3onc4ccc(-c5nnn[nH]5)cc34)c2)CC1 [Compound 86],IC50,"IP6K1; enzyme-coupled assay, Table 4",0.01 to 0.1 µM
same,IC50,"IP6K2; enzyme-coupled assay, Table 4",0.01 to 0.1 µM
same,IC50,"IPMK; enzyme-coupled assay, Table 4",0.01 to 0.1 µM
O=C(C1CC1)N1CCC(Oc2cccc(-c3onc4ccc(-c5nnn[nH]5)cc34)c2)CC1 [Compound 89],IC50,"IP6K1; enzyme-coupled assay, Table 4",0.01 to 0.1 µM
same,IC50,"IP6K2; enzyme-coupled assay, Table 4",0.01 to 0.1 µM
same,IC50,"IPMK; enzyme-coupled assay, Table 4",< 0.01 µM
CC1(C(=O)N2CCC(Oc3cccc(-c4onc5ccc(-c6noc(=O)[nH]6)cc45)c3)CC2)COC1 [Cmpd 139],IC50,IP6K1; [1],0.1 to 1 µM
same,IC50,IP6K2; [1],0.01 to 0.1 µM
same,IC50,IPMK; [1],0.1 to 1 µM
O=C(N1CCC(c2ccc(-c3onc4ccc(-c5nnn[nH]5)cc34)cc2)CC1)C1(F)CC1 [Compound 123],IC50,"IP6K1; enzyme-coupled assay, Table 4",0.1 to 1 µM
CNC(=O)c1ccc2noc(-c3ccccc3)c2c1 [Compound 21],IPMK IC50,"IPMK; enzyme-coupled assay, Table 2",−
c1cc(OC2CNC2)cc(-c2onc3ccc(-c4nnn[nH]4)cc23)c1 [Compound 92],IC50,"IP6K1; enzyme-coupled assay, Table 4",0.01 to 0.1 µM
same,IC50,"IP6K2; enzyme-coupled assay, Table 4",0.01 to 0.1 µM
